Results from patent US20050070544A1, “1,2,5,10-tetrahydropyridazino{4,5-b}quinoline-1,10-diones and their use for the treatment of pain” (AstraZeneca AB, priority 2000, published 2005).
pKi: −log10 of the molar value. Where a name gives a salt, the structure may show the parent alone.

Columns and labels:
[1] = target: T1, NMDA receptor glycine site (Rattus norvegicus, UniProt P35439); test: Test A: Inhibition of binding of [3H]-MDL105,519
T1 construct: fresh brain tissue including cerebral cortex and hippocampus from male Sprague Dawley rats was homogenized; tissue Analytical Biological Services Inc; host or cells: rat brain membranes (cerebral cortex and hippocampus, male Sprague Dawley rats)
Procedure: Test A: Inhibition of Binding of [^3H]-MDL105,519:
Binding of compounds to the NMDA receptor glycine site may be assessed by measuring the ability of test compounds to inhibit the binding of tritiated MDL105,519 to brain membranes bearing the receptor.
Rat Brain Membranes: The rat brain membranes used in the experiments were obtained from Analytical Biological Services Inc., and were prepared substantially in accordance with the method of B. M. Baron et al., J. Pharmacol. Exp. Ther. 250, 162 (1989). Briefly, fresh brain tissue including cerebral cortex and hippocampus from male Sprague Dawley rats was homogenized in 0.32 M sucrose and centrifuged at low speed to separate cellular membranes from other cellular components. The membranes were then washed 3 times using deionized water, followed by treatment with 0.04% Triton X-100. Finally, membranes were washed six times in 50 mM Tris citrate buffer, pH 7.4, and frozen at −80° C. until use.
[^3]MDL105,519 (72 Ci/mmol) was purchased from Amersham. Cold MDL105,519 was purchased from Sigma/RBI. Binding assays were performed substantially in accordance with the protocol of B. M. Baron et al., J. Pharmacol. Exp. Ther. 279, 62 (1996), as follows. On the day of the experiment, brain membranes were thawed at room temperature and suspended in 50 mM tris acetate buffer, pH 7.4 (“TAB”). Seventy-five micro grams per milliliter protein (by using the BioRad dye) were used for competition binding. The experiments were carried out using 96-well plates. Membranes were incubated with […] of compounds of various concentrations and 1.2 nM [^3H]MDL105,519 for 30 minutes at room temperature in a total volume of 250 μL. Non specific binding was determined by using 100 μM of unlabeled MDL105,519. The unlabeled MDL105,519 and compounds were dissolved as 12.5 mM stock solutions in DMSO. Final DMSO concentration in each well was kept below 1%, which concentration was found not to alter the binding results. After incubation, unbound [^3H]MDL105,519 was removed by filtration onto GF/B Unifilter plates using a Packard harvester. Filters were washed four times with ice cold TAB (total of 1.2 mL buffer). The plates were dried overnight at room temperature and bound radioactivity was measured on a Packard TopCount after the addition of 45 μL per well of the MICROSCINT O.
Human Brain Membranes: Human brain membranes were obtained from Analytical Biological Services Inc., and assays were performed as described for rat membranes.
Data analysis: Data was analyzed using a Microsoft Excel spreadsheet and GraphPad Prizm software and potency of compounds is expressed as the Ki (nM).

In the case of `O=c1c2ccc(Cl)cc2[nH]c2c(O)nn(CC#Cc3ccncc3)c(=O)c12` (as salt: methanesulfonate) [Ex. 1, 7-Chloro-4-hydroxy-2-(3-(4-pyridyl)prop-2-ynyl)1,2,5,10-tetrahydropyridazino[4,5-b]quinoline-1,10-dione 1,3 methanesulfonate], the melting point was 238 to 241 °C.
`O=c1c2ccc(Cl)cc2[nH]c2c(O)nn(CC#Cc3ccncc3)c(=O)c12` [Ex. 1, 7-Chloro-4-hydroxy-2-(3-(4-pyridyl)prop-2-ynyl)1,2,5,10-tetrahydropyridazino[4,5-b]quinoline-1,10-dione 1,3 methanesulfonate] gave a pKi [1] of 7.17.
`O=c1c2ccc(Cl)cc2[nH]c2c(O)nn(CC#Cc3cccc(Cl)c3)c(=O)c12` [Ex. 2, 7-Chloro-4-hydroxy-2-[3-(3-chlorophenyl)prop-2-ynyl]-1,2,5,10-tetrahydropyridazino[4,5-b]quinoline-1,10-dione] showed a pKi [1] of 8.10 and a melting point of 220 to 222 °C.
Work on `O=c1c2ccc(Cl)cc2[nH]c2c(O)nn(CC#Cc3ccc(Cl)cc3)c(=O)c12` [Ex. 3, 7-Chloro-4-hydroxy-2-[3-(4-chlorophenyl)prop-2-ynyl]-1,2,5,10-tetrahydropyridazino[4,5-b]quinoline-1,10-dione] yielded a pKi [1] of 7.06 and a melting point of 251 to 252 °C.
Work on `O=c1c2ccc(Cl)cc2[nH]c2c(O)nn(CC#Cc3ccccc3Cl)c(=O)c12` [Ex. 4, 7-Chloro-4-hydroxy-2-[3-(2-chlorophenyl)prop-2-ynyl]-1,2,5,10-tetrahydropyridazino[4.5-b]quinoline-1.10-dione] yielded a pKi [1] of 6.95 and a melting point of 255 to 257 °C.
Work on `CS(=O)(=O)O.O=c1c2ccc(Cl)cc2[nH]c2c(O)nn(CC#Cc3cccnc3)c(=O)c12` [Ex. 5, 7-Chloro-4-hydroxy-2-(3-(3-pyridyl)prop-2-ynyl)-1,2,5,10-tetrahydropyridazino[4,5-b]quinoline-1,10-dione methanesulfonate] yielded a pKi [1] of 7.85 and a melting point of 227 to 229 °C.
For `O=c1c2ccc(Cl)cc2[nH]c2c(O)nn(CC#Cc3ccc(Cl)nc3)c(=O)c12` [Ex. 6, 7-Chloro-2-[3-(6-chloro(3-pyridyl))prop-2-ynyl]-4-hydroxy-2,5-dihydropyridazino[4,5-b]quinoline-1,10-dione], the pKi [1] was 6.97.
